Assay in all cases: in vitro checkerboard method (Schachbrettmethode): MHK and FIC-Index
Format in all cases: cell-based

Assay [1] has as its system Serratia marcescens A 20460. Conditions: for MIC: Serratia marcescens. From the text: (§1) Zur Untersuchung der erfindungsgemäßen Kombination wurden mit typischen Vertretern der grampositiven und gramnegativen Keimgruppen in vitro Versuche durchgeführt. Mit der für Kombinationsversuche üblichen Methode, der sogenannten "Schachbrettmethode" (vgl. "Antibiotics in Laboratory Medicine", Editor Lorian, Baltimore London 1980, Seiten 300-309), wurden sowohl die minimalen Hemmkonzentrationen (MHK) als auch die Hemmgrenzen in den einzelnen Kombinationen bestimmt. Das Endergebnis wurde als FIC-Index (Fractional Inhibitory Concentration Index) ausgedrückt. Der FIC-Index berechnet sich nach folgender Formel: [formula]
(§2) Hierbei ist A bzw. B die niedrigste Konzentration der Verbindungen A bzw. B, die in Kombination mit der Verbindung B bzw. A eine Hemmwirkung zeigt. Dieser Wert wird durch die MHK der Verbindung A bzw. B dividiert. Der so erhaltene FIC-Index gibt Aufschluß über die Interaktionen von zwei Verbindungen in ihrer antibakteriellen Wirkung. FIC-Index-Zahlen, die kleiner als 1 sind, drücken eine synergistische Wirkung aus. Die mit dieser Methode ermittelten Resultate sind in den nachstehenden Tabellen zusammengestellt.
(§3) In den nachstehenden Tabellen sind in den ersten beiden Spalten die minimalen Hemmkonzentrationen der geprüften Verbindungen in Mikrogramm pro Milliliter aufgeführt. In einigen Fällen sind abweichende Konzentrationseinheiten angegeben, z.B. Nanogramm [ng] oder Milligramm [mg] pro Milliliter. Wenn ein FIC-Index nicht angegeben wurde, so bedeutet dies, daß aufgrund der Unwirksamkeit des einen Wirkstoffes keine Grenze zu ermitteln war.

The subject of a further assay is Salmonella paratyphi A. Conditions: Salmonella enterica, read-out: MHK.
Source text: as §1, §2, §3

The next assay relates to Staph. aureus SG 511. Conditions: Staphylococcus aureus, SG511, single substance.
Source text: as §1, §2, §3

The subject of another assay is Salmonella oranienburg. The note with it: Salmonella enterica, single substance.
Source text: as §1, §2, §3

For assay [2], the system named is Serratia marcescens A 20019. The note with it: single substance; for MIC: Serratia marcescens, A20019, in vitro.
Source text: as §1, §2, §3

For another assay, the system named is Salmonella typhimurium. The note with it: for MIC: Salmonella enterica, TYPHIMURIUM, read-out: MHK.
Source text: as §1, §2, §3

For the next assay, the system named is Pseud. aeruginosa 1771 m. Conditions: single substance; for MIC: Pseudomonas aeruginosa, 1771M.
Source text: as §1, §2, §3

For assay [3], the system named is Pseud. aeruginosa ATCC 9027. Conditions: Pseudomonas aeruginosa, ATCC9027, in vitro, single substance.
Source text: as §1, §2, §3

For assay [4], the system named is Pseud. aeruginosa NCTC 10701. Conditions: Pseudomonas aeruginosa, NCTC10701, in vitro, single substance.
Source text: as §1, §2, §3

The subject of a further assay is Hafnia alvei ATCC 11604.
Source text: as §1, §2, §3

The test system of another assay is Strept. faecium D. Conditions: Enterococcus faecium, single substance.
Source text: as §1, §2, §3

Assay [5] has as its system Micrococcus luteus ATCC 9341.
Source text: as §1, §2, §3

For the next assay, the system named is E. coli TEM. The note with it: Escherichia coli, read-out: MHK.
Source text: as §1, §2, §3

The test system of a further assay is E. coli 0 55. The note with it: single substance; for MIC: Escherichia coli, 055, in vitro.
Source text: as §1, §2, §3

The next assay relates to Proteus rettgeri 936. The note with it: single substance; for MIC: Providencia rettgeri, 936, in vitro.
Source text: as §1, §2, §3

For assay [6], the system named is Klebsiella pneumoniae A 9977.
Source text: as §1, §2, §3

The next assay has as its system Strept. pyogenes A 77. The note with it: Streptococcus pyogenes, A77, single substance.
Source text: as §1, §2, §3

In the next assay the test system is Enterobacter cloacae. The note with it: read-out: MHK.
Source text: as §1, §2, §3

Assay [7] concerns Bacillus subtilis ATCC 6633.
Source text: as §1, §2, §3

The subject of a further assay is E. coli 0 86. Conditions: Escherichia coli, 086, single substance, ng per millilitre (b7).
Source text: as §1, §2, §3

The mark [8] stands for this setting: in vitro, single substance, Salmonella typhimurium.
[9] abbreviates: ATCC9341, in vitro, single substance, Micrococcus luteus ATCC 9341, read-out: MHK.

Like-named read-outs stand apart in the source and are kept apart here.

Take `CCOc1ccc2nc3cc(N)ccc3c(N)c2c1` [EAL, Ethacridinlactat]: the MIC in assay [1] (A20460, in vitro, single substance, Serratia marcescens A 20460, mg per millilitre (b7), read-out: MHK) is > 1000 µg/mL; in the assay with Salmonella paratyphi A, 12.5 µg/mL; in the assay on Staph. aureus SG 511, 6.25 µg/mL; in the assay with Salmonella oranienburg, 62.5 µg/mL; in assay [2] (mg per millilitre (b7)) it was 1000 µg/mL; in the assay on Salmonella typhimurium (setting [8]), 25 µg/mL. For the same molecule, the MIC in the assay on Pseud. aeruginosa 1771 m worked out at 31.2 µg/mL; in assay [3], 12.5 µg/mL; in assay [4], 12.5 µg/mL; with Hafnia alvei ATCC 11604 (ATCC11604, in vitro, single substance, Hafnia alvei ATCC 11604, read-out: MHK) it was 62.5 µg/mL; with Strept. faecium D it was 12.5 µg/mL; in assay [5] (setting [9]) it was 6.25 µg/mL. The MIC in the assay with E. coli TEM worked out at 12.5 µg/mL; in the assay with E. coli 0 55, 6.25 µg/mL; in the assay with Proteus rettgeri 936, 31.2 µg/mL; in [6] (A9977, in vitro, single substance, Klebsiella pneumoniae A 9977, read-out: MHK), 125 µg/mL. The MHK is 1,0 mg in assay [1] (in vitro, single substance, Serratia marcescens A 20460, mg per millilitre (b7)); >1,0 mg in [2] (in vitro, mg per millilitre (b7)); 50,0 µg/ml in the assay with Salmonella typhimurium (setting [8]); 62,5 µg/ml in the assay on Pseud. aeruginosa 1771 m; 12,5 µg/ml in the assay with E. coli 0 55 (in vitro); 62,5 µg/ml with Proteus rettgeri 936 (in vitro).

As to `COn1cc(C(=O)O)c(=O)c2cc3c(cc21)OCO3` [Miloxacin], the MIC in the assay on Staph. aureus SG 511 is 6.25 µg/mL; with Pseud. aeruginosa 1771 m it was 50 µg/mL; in [3], 25 µg/mL; in assay [4] it was 31.2 µg/mL; in the assay with Strept. pyogenes A 77 (mg per millilitre (b7)) it was > 1000 µg/mL; in the assay with Strept. faecium D (mg per millilitre (b7)) it was > 1000 µg/mL. For the same molecule, the MIC in [5] (ATCC9341, in vitro, single substance, Micrococcus luteus ATCC 9341, mg per millilitre (b7), read-out: MHK) was > 1000 µg/mL; with Enterobacter cloacae (in vitro, single substance), 2.5 µg/mL.

For the molecule `CCn1cc(C(=O)O)c(=O)c2ccc(C)nc21` [Nalidixinsäure], the MIC in assay [1] (A20460, read-out: MHK) was 6.25 µg/mL; in the assay on Staph. aureus SG 511 it was 50 µg/mL; with Pseud. aeruginosa 1771 m, 100 µg/mL; in [3] it was 500 µg/mL; in [4], 250 µg/mL; in the assay on Strept. pyogenes A 77 (mg per millilitre (b7)) it was > 1000 µg/mL. For the same molecule, the MIC in [7] (Bacillus subtilis, ATCC6633, read-out: MHK) was 6.25 µg/mL; in the assay on Strept. faecium D, 500 µg/mL; in assay [5] (Micrococcus luteus, ATCC9341, read-out: MHK) it was > 1000 µg/mL; with Enterobacter cloacae it was 6.25 µg/mL; in [6] (Klebsiella pneumoniae, A9977, read-out: MHK), 6.25 µg/mL.

Take `CCn1cc(C(=O)O)c(=O)c2cc(F)c(N3CCNCC3)cc21` [Norfloxacin]: the MIC is 0.0195 µg/mL with Salmonella paratyphi A; 0.0781 µg/mL in the assay with Salmonella oranienburg (ng per millilitre (b7)); 0.0781 µg/mL in assay [2] (ng per millilitre (b7)); 0.0195 µg/mL in the assay with Salmonella typhimurium; 2.5 µg/mL in the assay with Strept. pyogenes A 77; 0.0195 µg/mL in the assay on Hafnia alvei ATCC 11604 (Hafnia alvei, ATCC11604, read-out: MHK). For the same molecule, the MIC in the assay on Strept. faecium D was 1.25 µg/mL; in [5] (setting [9]), 12.5 µg/mL; in the assay with E. coli TEM it was 0.0391 µg/mL; in the assay with E. coli 0 86, 0.0391 µg/mL; with E. coli 0 55 (ng per millilitre (b7)), 0.0391 µg/mL; with Proteus rettgeri 936 (ng per millilitre (b7)), 0.0781 µg/mL.

With `CCn1cc(C(=O)O)c(=O)c2cc3occc3nc21` [OFNC, 5-Äthyl-5,8-dihydro-8-oxofuran(3,2-b)(1,8)-naphthyridin-7-carbonsäure], the MIC with Salmonella paratyphi A is 0.0391 µg/mL; with Salmonella oranienburg (ng per millilitre (b7)), 0.0781 µg/mL; in the assay on Salmonella typhimurium (in vitro, single substance, Salmonella typhimurium, ng per millilitre (b7)), 0.0781 µg/mL; in the assay with Strept. pyogenes A 77, 125 µg/mL; in assay [7] (ATCC6633, in vitro, single substance, Bacillus subtilis ATCC 6633, ng per millilitre (b7), read-out: MHK), 0.0488 µg/mL; with Hafnia alvei ATCC 11604 (ATCC11604, in vitro, single substance, Hafnia alvei ATCC 11604, ng per millilitre (b7), read-out: MHK), 0.0391 µg/mL. The MIC came out at 31.2 µg/mL in the assay on Strept. faecium D; 31.2 µg/mL in [5] (setting [9]); 0.0625 µg/mL in the assay on E. coli 0 86; 0.0312 µg/mL in the assay on Proteus rettgeri 936 (ng per millilitre (b7)); 0.0781 µg/mL in assay [6] (A9977, in vitro, single substance, Klebsiella pneumoniae A 9977, ng per millilitre (b7), read-out: MHK).

The record behind these values is patent publication EP0098577A2, “Drugs for treating diarrhea caused by infection” (HOECHST AKTIENGESELLSCHAFT, priority 1982, dated 1984).
